Measured values taken from US10231463B2, “Food mass suitable for microwaving” (Chemische Fabrik Budenheim KG, priority 2013, dated 2019).

Legend:
[1] = Pore volume by nitrogen gas adsorption (BJH method, BELSORP-mini II); type: physicochemical; settings: total pore volume Vp, nitrogen adsorption at 77.3 K
Source text: Determining the Pore Volume
The pore volume in accordance with the present invention is characterised by means of gas adsorption. The recording of physisorption isotherms (adsorption and desorption isotherms) of inert gas molecules at low temperatures is routinely used for determining solids parameters.
The BJH method provides an algorithm for the calculation of pore width distribution from nitrogen adsorption data on the assumption of a cylindrical pore geometry. In that respect consideration is given to the change in the adsorbed volume in the pores in dependence on the pore radius, wherein the pore radius distribution function is related as a relative value to the total pore volume. […] It is assumed that the entire pore system is filled with a capillary condensate.

[2] = Thawing and baking trials with puff pastry in a microwave oven; settings: for ΔT (temperature difference between crust temperature and crumb temperature): 2 parts by weight additive, puff pastry dough pieces; for Microwave activity: assessment scale from ΔT, puff pastry doughs
Protocol: A puff pastry from Veripan was used as the basic recipe.
2 parts by weight of microwave absorber were further added to the basic recipe.
Wheat flour, inverted sugar, emulsifier and optionally microwave absorber were put into a mixing container and mixed. The water and 20% of the vegetable fat were added and kneaded for 3 minutes at a low stage and for 5 minutes at a medium stage with a spiral kneader. The dough temperature was monitored. The target temperature was 18° C. After that the remaining vegetable fat was beaten into the dough. The dough was then folded at intervals each of 30 minutes in 4 working steps, more specifically 2 single and 2 double turns. They give by calculation 144 fat layers (margarine), divided into very thin dough and fat layers. Before processing the dough was stored in a cooled condition for 12 hours.
Unbaked puff pastry dough roundels without filling and pre-baked puff pastry dough pockets (hot pockets) with a tomato sauce filling were respectively subjected to microwave radiation as deep-frozen dough pieces in a microwave oven from Panasonic (see Example 2) for a predetermined period and with a predetermined microwave power. After a […] standing time the temperature of the dough piece was measured by means of a thermal imaging camera (Fluke Ti20) and evaluated.
Measurement value 1 (M1)=averaged crust temperature outside
Measurement value 2 (M2)=averaged crumb temperature in the interior of the dough piece.
Puff pastry dough roundel (PPD-RO): 440 watts; 200 seconds
Puff pastry dough hot pockets (PPD-HP): 600 watts; 300 seconds
Table 3 hereinafter reproduces the additives used, the temperature measurement values M1 and M2 and the corresponding temperature difference (ΔT) between crust temperature and crumb temperature of the dough piece.
Assessment of Microwave Activity in Puff Pastry Doughs 1: ΔT=>20° C.=very good 2: ΔT=15 to <20° C.=good 3: ΔT=<15° C.=no additional additive

[3] = Thawing and baking trials with yeast-raised wheat frozen doughs in a microwave oven; settings: yeast-raised wheat frozen dough; for ΔT (temperature difference between crust temperature and crumb temperature): 2 parts by weight additive, 600 watts, 120 seconds; for Microwave activity: assessment scale from ΔT
Protocol: Dough Composition (Basic Recipe):
In addition 2 parts by weight of microwave absorber were added to the basic recipe.
• Mixing and kneading time: 3+2 minutes (the latter in a Stephan mixer) • Dough standing time: 20 minutes • Dough piece weight: 200 g • Cooking time of the dough pieces: 20 minutes • Freezing time: about 4 hours • Deep freeze storage time: about 2 days Thawing and Baking Trials:
The deep-frozen dough pieces were exposed to microwave radiation in a microwave oven from Panasonic (model: NN-GD560M—inverter microwave) for a predetermined period of 120 seconds and with a predetermined microwave power of 600 watts (according to the device indication). After 2 minutes of standing time the temperature of the crust and the crumb was measured by means of an infrared temperature sensor at various measurement points on the dough piece.
Measurement value 1 (M1)=average crust temperature outside
Measurement value 2 (M2)=average crumb temperature in the interior of the dough piece.

[4] = Baking trials with ready-to-eat baking mixture (lemon cake) in a microwave oven; settings: for ΔT (temperature difference between crust temperature and crumb temperature): 2 parts by weight additive, 600 watts, 140 seconds; for Microwave activity: assessment scale from ΔT
Protocol: A ready-to-eat baking mixture for lemon cakes from […] was used as the basic recipe. […] Whole egg and sugar were put into a mixing container and mixed. The powder mixture of the composition (wheat flour, cooking salt and so forth) was slowly mixed in. Vegetable oil, flavouring substances and alcohol were then slowly added and mixing was effected for 12 minutes. After that baking raising agent was added and mixed at a medium stage for a further 2 minutes. After that the microwave absorber was mixed in, the mixer was switched off, and the material was tipped out and stored cool.

[5] = Solubility of the additive in water at 20° C.; type: physicochemical

| Molecule | Pore Volume [1] | ΔT (temperature difference between crust temperature and crumb temperature) [2] [°C] | Microwave activity [2] | ΔT (temperature difference between crust temperature and crumb temperature) [3] [°C] | Microwave activity [3] | ΔT (temperature difference between crust temperature and crumb temperature) [4] [°C] | Microwave activity [4] | Solubility [5] [mg/mL] |
| --- | --- | --- | --- | --- | --- | --- | --- | --- |
| O=P([O-])(O)OP(=O)([O-])O.[Ca+2] [CAPP, Acid calcium pyrophosphate] | 3.6 10^−3 cm^3/g | 26.1 | 1 (ΔT=>20° C.=very good) | 50.0 | 1 (ΔT=>40° C.=very good) | 21.2 | 1 (ΔT=>20° C.=very good) | – |
| O=P([O-])([O-])[O-].[Fe+3] [FeOP, Iron-III-orthophosphate] | 19 10^−3 cm^3/g | 15.1 | 2 (ΔT=15 to <20° C.=good) | 47.0 | 1 (ΔT=>40° C.=very good) | 15.9 | 2 (ΔT=15 to <20° C.=good) | – |
| O=P([O-])([O-])OP(=O)([O-])[O-].O=P([O-])([O-])OP(=O)([O-])[O-].O=P([O-])([O-])OP(=O)([O-])[O-].[Fe+3].[Fe+3].[Fe+3].[Fe+3] [FePP, Iron-III-pyrophosphate] | 30 10^−3 cm^3/g | 16.9 | 2 (ΔT=15 to <20° C.=good) | 42.6 | 1 (ΔT=>40° C.=very good) | 26.4 | 1 (ΔT=>20° C.=very good) | – |
| O=P([O-])([O-])OP(=O)([O-])OP(=O)([O-])[O-].[K+].[K+].[K+].[K+].[K+] [KTPP(V), Potassium tripolyphosphate, reference compound] | 1.1 10^−3 cm^3/g | – | – | 12.3 | 3 (ΔT=<25° C.=no additional activity) | – | – | >200 |
| O=P([O-])([O-])OP(=O)([O-])[O-].[Mg+2].[Mg+2] [MgPP, Magnesium pyrophosphate] | 7.1 10^−3 cm^3/g | 15.2 | 2 (ΔT=15 to <20° C.=good) | 45.8 | 1 (ΔT=>40° C.=very good) | 19.1 | 2 (ΔT=15 to <20° C.=good) | – |
| O=P(O)(O)OP(=O)(O)OP(=O)(O)O [STPP(V), Sodium tripolyphosphate, reference compound] | 1.1 10^−3 cm^3/g | – | – | 12.6 | 3 (ΔT=<25° C.=no additional activity) | – | – | 145 |
| O=P([O-])([O-])OP(=O)([O-])[O-].[Zn+2].[Zn+2] [ZPP, Zinc pyrophosphate] | 10.5 10^−3 cm^3/g | – | – | 37.9 | 2 (ΔT=25 to 40° C.=good) | – | – | – |
| Ammonium molybdate [AmMD(V), reference compound] | 2.6 10^−3 cm^3/g | – | – | 24.2 | 3 (ΔT=<25° C.=no additional activity) | – | – | – |
| Calcium gluconate [CaGl] | 10.0 10^−3 cm^3/g | – | – | 36.6 | 2 (ΔT=25 to 40° C.=good) | – | – | – |
| Magnesium metaphosphate [MMP] | 5.1 10^−3 cm^3/g | – | – | 38.4 | 2 (ΔT=25 to 40° C.=good) | – | – | <0.1 |
| Sodium aluminium phosphate 1:3:8 NaH14Al3(PO4)8 [SALP 1] | 13 10^−3 cm^3/g | – | – | 29.6 | 2 (ΔT=25 to 40° C.=good) | – | – | 15 |
| Sodium aluminium phosphate 3:2:8 Na3H15Al2*PO4)8 [SALP 2] | 6.4 10^−3 cm^3/g | – | – | 20.5 | 2 (ΔT=25 to 40° C.=good) | – | – | 15 |
